Experimental data as given in patent US11752125B2, “Anti-neuroinflammatory and protective compounds in Achillea fragrantissima” (THE STATE OF ISRAEL MINISTRY OF AGRICULTURE & RURAL …, priority 2013, dated 2023).

Key:
[1] = test system: SAPK/JNK; assay: H2O2-induced SAPK/JNK phosphorylation in astrocytes (ELISA); assay type: cell-based, rat; settings: H2O2 175 μM 40 min
Method: (§1) Astrocytes were treated with TTF 2 h before the addition of H2O2. Cells were lysed 40 minutes after the addition of H2O2 in lysis buffer supplied by PathScan sandwich ELISA kit (Cell Signaling TECHNOLOGY) according to the manufacturer's protocol. Protein concentrations in cell lysates were determined by Bradford reagent (Bio-Rad, Hercules, Calif.), and equal amounts of proteins were subjected to ELISA. To measure the amount of total and phosphoSAPK/JNK in cell lysates of astrocytes, ELISA was performed according to the manufacturer's protocol using the PathScan total SAPK/JNK sandwich ELISA kit (Cell Signaling TECHNOLOGY) and the PathScan phospho-SAPK/JNK (Thr183/Tyr185) sandwich ELISA kit (Cell Signaling TECHNOLOGY), respectively. […] The optical density was determined at 450 nm using a microplate reader.
(§2) 1. […] Determine the optical density at 450 nm using a microplate reader.
(§3) Astrocytes were treated with 175 μM of H2O2 for 40 min following preincubation with TTF for 2 h. The levels of phosphorylated and total SAPK/JNK (FIG. 3A), MEK1 (FIG. 3B) and ERK 1/2 (FIG. 3C) were measured by ELISA. […]

[2] = test system: MEK1; assay: H2O2-induced MEK1 phosphorylation in astrocytes (ELISA); assay type: cell-based, rat; settings: H2O2 175 μM 40 min; for effect on H2O2-induced phosphorylation of MEK1: astrocytes preincubated 2 h
Method: as §1, with “respectively. To measure the amount of total and phospho-ERK 1/2 (i.e. phospho-p44/42 MAPK) in cell lysates of astrocytes, ELISA was performed according to the manufacturer's protocol using the PathScan total p44/42 MAPK (ERK 1/2) sandwich ELISA kit (Cell Signaling TECHNOLOGY) and the PathScan phospho-p44/42 MAPK (Thr202/Tyr204) sandwich ELISA kit (Cell Signaling TECHNOLOGY), respectively. To measure the amount of total and phospho-MEK1 in cell lysates of astrocytes, ELISA was performed according to the manufacturer's protocol using the PathScan total MEK1 sandwich ELISA kit (Cell Signaling TECHNOLOGY) and the PathScan phospho-MEK1 (Ser217/221) sandwich ELISA kit (Cell Signaling TECHNOLOGY), respectively.” for “respectively.”
as §2, §3

[3] = test system: MEK1; assay: Aβ25-35-induced MEK1 phosphorylation in N2a cells (ELISA); assay type: cell-based; settings: concomitant treatment 30-40 min
Method: 7. Measure the amount of total and phosphorylated MEK1 in cell lysates of N2a cells, by ELISA using the PathScan total MEK1 sandwich ELISA kit (Cell Signaling TECHNOLOGY) or the PathScan phosoho-MEK1 (Ser217/221) sandwich ELISA kit (Cell Signaling TECHNOLOGY), respectively. 8. Determine the optical density at 450 nm using a microplate reader.
N2a cells were treated concomitantly with Aβ25-35 and TTF for 30 min. Cells were extracted and the levels of phosphorylated or total MEK1 were determined by specific ELISA kits. The results are the mean±SEM of two different experiments for phosphoMEK1 (n=4) (see FIG. 12A) and of one experiment for total MEK1 (n=2) (see FIG. 12B).
N2a cells were treated concomitantly with Aβ25-35 and AcA for 40 min. Cells were extracted and the levels of phosphorylated or total MEK1 were determined by specific ELISA kits. The results are the mean±SEM of one experiment (n=2).
N2a cells were treated concomitantly with A25-35 and memantine for 30 min. Cells were extracted and the levels of phosphorylated or total MEK1 were determined by specific ELISA kits. The results are the mean±SEM of one experiment (n=2).

COc1cc(-c2oc3cc(OC)c(OC)c(O)c3c(=O)c2O)ccc1O [TTF, 3,5,4′-trihydroxy-6,7,3′-trimethoxyflavone]
inhibition of H2O2-induced phosphorylation of SAPK/JNK ([1]; astrocytes pretreated 2 h, total SAPK/JNK not affected): 80%
inhibition of H2O2-induced phosphorylation of MEK1 ([2]; astrocytes pretreated 2 h, total MEK1 not affected): 27%
effect on Aβ25-35-induced phosphorylation of MEK1 [3]: significantly inhibited

C=C1CCC2=C(CO)C(=O)O[C@H]2/C=C(\C)[C@H](OC(C)=O)CC1=O [achillolide A]
effect on H2O2-induced phosphorylation of SAPK/JNK ([1]; astrocytes preincubated 2 h): inhibitory effect
effect on H2O2-induced phosphorylation of MEK1 [2]: inhibitory effect
effect on Aβ25-35-induced phosphorylation of MEK1 [3]: does not affect

CC12CC3CC(C)(C1)CC(N)(C3)C2 [memantine, reference compound]
effect on H2O2-induced phosphorylation of MEK1 [2]: inhibitory effect
effect on Aβ25-35-induced phosphorylation of MEK1 [3]: down-regulates
